Key:
DG microglia = DG microglia number and morphology after unpredictable stress (US/CUS); format: in vivo, mice
Procedure: (§1) Subjects were exposed to chronic unpredictable stress (CUS), consisting of daily exposure to two stressors in a random order over a 5-week period. The effect of a shorter period of unpredictable stress was examined by exposing mice to various combinations of 2-3 of the same stressors over a period of 2 days. The list of CUS stressors included: cage shaking for 1 h with loud music and lights, on, lights on during the entire night (12 h), lights-off for 3 h during the daylight phase, flashing (stroboscopic) light for 6 h, placement in 4° C. cold room for 1 h, mild restraint (in small cages) for 2 h, 45° cage tilt for 14 h, wet cage for 14 h, exposure to fox, ferret, bobcat, or coyote smell for 2 h, noise in the room for 3 h, and water deprivation for 12 h during the dark period.
Animals were perfused trans-cardially with cold PBS followed by 4% paraformaldehyde in 0.1 M PBS, and the brains were quickly removed and placed in 4% paraformaldehyde. After 24 h the brains were placed in 30% sucrose solution in PBS and then frozen in OCT.
In some experiments microglia were visualized using an antibody to the microglia activation marker ionized calcium-binding adapter molecule-1 (Iba-1). Brain sections were first fixed in 2% paraformaldehyde, and after 3 PBS washes they were incubated over-night in 3% normal goat serum in 5% BSA with the primary antibody (rabbit anti Iba-1 1:220, Wako, Japan) at 4° C. Sections were then incubated with the secondary antibody (goat anti rabbit, 1:200; Invitrogen) for 1 hour at RT and counter-stained with DAPI (Sigma, Israel).
(§2) Images were captured using Nikon Eclipse fluorescent microscope and CI Nikon confocal microscope and camera. The number of GFP-labeled microglia (and in some studies the number of BrdU-labeled microglia and other cells), as well and the microglial soma area were automatically measured at ×10 magnification in a defined area exclusively containing the entire Dentate Gyrus or prelimbic cortex, for each slide, using Nikon Imaging Elements Software (NIS-Elements). Microglia processes length was measured by capturing images at 40× magnification and by manual tracing of the processes of 4 randomly selected cells/section their processes using the NIS Elements software.

CUS-exposed mice [1] = assay: Porsolt forced swim test; format: in vivo
Procedure: Subjects were exposed to chronic unpredictable stress (CUS), consisting of daily exposure to two stressors in a random order over a 5-week period. […] The list of CUS stressors included: cage shaking for 1 h with loud music and lights, on, lights on during the entire night (12 h), lights-off for 3 h during the daylight phase, flashing (stroboscopic) light for 6 h, placement in 4° C. cold room for 1 h, mild restraint (in small cages) for 2 h, 45° cage tilt for 14 h, wet cage for 14 h, exposure to fox, ferret, bobcat, or coyote smell for 2 h, noise in the room for 3 h, and water deprivation for 12 h during the dark period.
Mice were placed in 20 cm diameter glass cylinder filled to 10 cm with 21° C. water and their behavior was analyzed for five min. The time spent in immobility, defined as the absence of all movement except motions required to maintain the animal's head above the water, and the latency to first immobility episode were recorded using an in-house computerized software.

CUS-exposed mice [2] = assay: CUS model, overall depressive-like behavior; format: in vivo
Procedure: as §1

CUS-exposed mice [3] = assay: Sucrose preference test; format: in vivo
Procedure: as §1, with “dark period. Following baseline adaptation to sucrose for several days, animals were presented in the beginning of the dark circadian phase with two graduated drinking tubes, one containing tap water and the other 2% sucrose solution for 3 hr. Sucrose preference was calculated as the percent of sucrose consumption out of the total drinking volume.” for “dark period.”

CUS-exposed mice [4] = assay: Social exploration test; format: in vivo; conditions: for social exploration time: 5-weeks CUS-exposed mice treated for 2 additional weeks of CUS
Procedure: as §1, with “dark period. Each subject was placed in an observation cage and allowed to habituate to the cage for 15 min, following which a male juvenile was placed in the cage. Social exploration, defined as the time of near contact between the nose of the subject and the juvenile conspecific, was then recorded for three minutes, using computerized in-house software.” for “dark period.”

DG cells = assay: BrdU labeling of DG cells (neurogenesis / proliferation); format: in vivo, mice; conditions: M-CSF 100 μg/kg i.p. daily for 5 days
Procedure: BrdU immunofluorescent staining was performed on 8 μm frozen brain sections, fixated in 50% formamide/2×SCC (0.3M NaCl and 0.03 M sodium citrate) for 2 hours at 65° C. After one wash with 2×SCC, sections were incubated in 2 N HCl for 30 minutes at 37° C. Sections were then rinsed in 0.1 M boric acid at pH 8.5 and washed 3 times in PBS, following which they were incubated in 3% normal goat serum in 1% BSA/0.1% Triton for 30 min at room temperature and then incubated with rat monoclonal anti-BrdU antibody (1:200, AbD serotec) for 48 hours at 4° C. […]
as §2

[5] = 5-weeks CUS-exposed mice treated for 2 additional weeks of CUS (imipramine, minocycline in drinking water; GM-CSF i.p. 3 time/week)
[6] = 5-weeks CUS, drug beginning two days before and throughout CUS
[7] = 5-weeks CUS-exposed mice treated for 2 additional weeks of CUS
[8] = CUS-exposed mice, M-CSF 100 μg/kg i.p. daily for 5 days

In the case of `CN(C)CCCN1c2ccccc2CCc2ccccc21` [imipramine, reference compound], the DG microglia number (DG microglia; [5]) is reported as “no differences from any of the groups”, the hippocampal microglia number (DG microglia; [6]) is reported as “blocked the CUS-induced decline in hippocampal microglia number” and the microglia processes length (DG microglia; [6]) is reported as “blocked the CUS-induced decline”. For the same molecule, the microglia soma size (DG microglia; [6]) was “blocked the CUS-induced decline”, the “number of hippocampal (DG) microglia” value (DG microglia; 2 days of US exposure, drug via drinking water beginning 2 days before US initiation (minocycline 40, imipramine 20 mg/kg/day)) was “completely reversed the increase in hippocampal microglia” and the floating time (CUS-exposed mice [1]; [7]) was “showed no difference from non-stressed controls”. The “effect on established CUS-induced depressive-like behavior” value (CUS-exposed mice [2]; administration to mice with established CUS-induced depressive-like behavior) was “produced minimal beneficial effects”, the sucrose preference (CUS-exposed mice [3]; [6]) was “prevented the CUS-induced reductions in sucrose preference” and the social exploration time (CUS-exposed mice [4]) was “further reductions were evident”. For the same molecule, the social exploration (CUS-exposed mice [4]; [6]) was “prevented the CUS-induced reductions”.

With GM-CSF the DG microglia number (DG microglia; [5]) was “significantly greater number of microglia as compared with the control CUS-exposed mice”, the floating time (CUS-exposed mice [1]; [7]) was “showed no difference from non-stressed controls” and the sucrose preference (CUS-exposed mice [3]; [7]) was “completely reversed the suppressive effects of CUS on sucrose preference”. For the same molecule, the social exploration time (CUS-exposed mice [4]) was “induced an elevation in the social exploration time”.

For “IL-1β: microglia-stimulating cytokine interleukin-1β, given intra-hippocampally”, the “microglia number and morphology” value (DG microglia; acute intra-hippocampal administration in WT mice) was “mimicked the effects of short-term US on microglia number and morphology”.

B1: M-CSF: Macrophage colony-stimulating factor, homodimer glycoprotein; microglia activator (protein, UniProt P09603 33-554, looked up)
Macrophage colony-stimulating …: EEVSEYCSHMIGSGHLQSLQRLIDSQMETSCQITFEFVDQEQLKDPVCYLKKAFLLVQDIMEDTMRFRDNTPNAIAIVQLQELSLRLKSCFTKDYEEHDKACVRTFYETPLQLLEKVKNVFNETKNLLDKDWNIFSKNCNNSFAECSSQDVVTKPDCNCLYPKAIPSSDPASVSPHQPLAPSMAPVAGLTWEDSEGTEGSSLLPGEQPLHTVDPGSAKQRPPRSTCQSFEPPETPVVKDSTIGGSPQPRPSVGAFNPGMEDILDSAMGTNWVPEEASGEASEIPVPQGTELSPSRPGGGSMQTEPARPSNFLSASSPLPASAKGQQPADVTGTALPRVGPVRPTGQDWNHTPQKTDHPSALLRDPPEPGSPRISSLRPQGLSNPSTLSAQPQLSRSHSSGSVLPLGELEGRRSTRDRRSPAEPEGGPASEGAARPLPRFNSVPLTDTGHERQSEGSFSPQLQESVFHLLVPSVILVLLAVGGLLFYRWRRRSHQEPQRADSPLEQPEGSPLTQDDRQVELPV
For B1, the DG microglia number (DG microglia; control and CUS-exposed mice, M-CSF 100 μg/kg i.p. daily for 5 days) was “overall increase in DG microglia number, completely normalizing microglia number in CUS-exposed mice”, the “generation of new (BrdU-labeled) DG cells that are not microglia” value (DG cells; CUS-exposed mice) was “marked increase in the generation of new (BrdU-labeled) DG cells that are not microglia” and the “microglia proliferation (GFP microglia co-labeled for BrdU)” value (DG cells) was “overall increase in microglia proliferation”. The floating time (CUS-exposed mice [1]; [8]) was “reversed”, the “latency to first float” value (CUS-exposed mice [1]; [8]) was “did not reach statistical significance” and the depressive-like behavioral symptoms (CUS-exposed mice [2]; CUS-exposed mice) was “completely reversed the depressive symptoms after a few days of treatment”. The depressive symptoms (CUS-exposed mice [2]; non-stressed mice) was “did not cause depressive symptoms in non-stressed mice”, the sucrose preference (CUS-exposed mice [3]; [8]) was “completely reversed the suppressive effects of CUS on sucrose preference” and the social exploration (CUS-exposed mice [4]; [8]) was “completely reversed the suppressive effects of CUS”.
